Test results reported in patent publication US7135466B2 (Kirin Beer Kabushiki Kaisha, priority 1999, dated 2006).
pIC50: −log10 of the molar value. Like-named read-outs stand apart in the source and are kept apart here.

How the values were obtained:
[1] = target: T1, PDGF-Ra (Homo sapiens, UniProt P16234); assay: Inhibitory activity against PDGF-Ra phosphorylation by PDGF-AA stimulation using G292; assay type: cell-based; conditions: for pIC50: > means inhibition at indicated concentration not more than 50%, < and << not less than 50%, read-out: PDGF (E) IC50; for inhibition at 0.1 µM: G292, figure within parentheses in >100( ), at 100 nM, read-out: PDGF (E) inhibition (%) at 100 nM
T1 construct: host or cells: G-292 human osteosarcoma cells
T1 sequence (P16234 24-1089): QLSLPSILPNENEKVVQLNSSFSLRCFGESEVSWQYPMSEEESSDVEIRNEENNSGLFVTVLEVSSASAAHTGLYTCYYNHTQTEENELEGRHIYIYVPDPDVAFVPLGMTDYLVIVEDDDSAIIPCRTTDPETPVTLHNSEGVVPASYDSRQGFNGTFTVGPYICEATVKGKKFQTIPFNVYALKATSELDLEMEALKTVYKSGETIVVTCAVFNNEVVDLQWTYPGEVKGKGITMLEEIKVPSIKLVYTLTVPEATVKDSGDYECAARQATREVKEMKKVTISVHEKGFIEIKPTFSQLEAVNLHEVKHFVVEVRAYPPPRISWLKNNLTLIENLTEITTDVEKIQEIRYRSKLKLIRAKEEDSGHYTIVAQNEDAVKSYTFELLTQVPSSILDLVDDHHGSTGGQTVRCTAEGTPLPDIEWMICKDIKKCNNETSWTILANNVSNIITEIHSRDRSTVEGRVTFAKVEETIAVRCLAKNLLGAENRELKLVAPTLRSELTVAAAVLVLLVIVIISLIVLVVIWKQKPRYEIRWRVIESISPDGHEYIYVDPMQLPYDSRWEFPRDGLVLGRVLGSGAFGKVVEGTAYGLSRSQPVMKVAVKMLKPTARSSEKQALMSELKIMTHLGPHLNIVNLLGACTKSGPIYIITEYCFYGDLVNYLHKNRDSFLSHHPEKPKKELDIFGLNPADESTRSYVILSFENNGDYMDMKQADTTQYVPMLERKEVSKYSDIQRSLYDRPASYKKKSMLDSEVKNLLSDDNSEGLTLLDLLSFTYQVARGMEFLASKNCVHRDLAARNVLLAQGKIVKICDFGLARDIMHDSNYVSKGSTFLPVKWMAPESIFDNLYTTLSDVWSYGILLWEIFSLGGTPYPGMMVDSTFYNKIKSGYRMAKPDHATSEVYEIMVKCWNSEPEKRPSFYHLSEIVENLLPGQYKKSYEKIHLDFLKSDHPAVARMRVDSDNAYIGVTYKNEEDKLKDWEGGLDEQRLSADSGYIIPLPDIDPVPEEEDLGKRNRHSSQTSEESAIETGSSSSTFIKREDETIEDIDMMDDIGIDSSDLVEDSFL
Method in brief: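 Phosphorylated PDGF-Ra was measured colorimetrically (450 nm) after tyrosine-phosphorylated proteins from G-292 lysates were bound to PY-20-coated wells and detected with anti-PDGF-Ra antibody. Compound preincubation lasted 1 hr, followed by 50 ng/ml PDGF-AA for 5 min.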

[2] = target: T2, c-kit (Homo sapiens, UniProt P10721); assay: Inhibitory activity against c-kit autophosphorylation (MO7e cells, h-SCF); assay type: cell-based; conditions: for pIC50: MO7e cells, read-out: c-kit IC50; for inhibition at 1 µM: Mo7e, at 1000 nM
T2 construct: MO7e (human megakaryocytic leukemia cell line) which had been arrested for 20 hr; endogenous in cells; host or cells: MO7e human megakaryocytic leukemia cell line
T2 sequence (P10721 26-976): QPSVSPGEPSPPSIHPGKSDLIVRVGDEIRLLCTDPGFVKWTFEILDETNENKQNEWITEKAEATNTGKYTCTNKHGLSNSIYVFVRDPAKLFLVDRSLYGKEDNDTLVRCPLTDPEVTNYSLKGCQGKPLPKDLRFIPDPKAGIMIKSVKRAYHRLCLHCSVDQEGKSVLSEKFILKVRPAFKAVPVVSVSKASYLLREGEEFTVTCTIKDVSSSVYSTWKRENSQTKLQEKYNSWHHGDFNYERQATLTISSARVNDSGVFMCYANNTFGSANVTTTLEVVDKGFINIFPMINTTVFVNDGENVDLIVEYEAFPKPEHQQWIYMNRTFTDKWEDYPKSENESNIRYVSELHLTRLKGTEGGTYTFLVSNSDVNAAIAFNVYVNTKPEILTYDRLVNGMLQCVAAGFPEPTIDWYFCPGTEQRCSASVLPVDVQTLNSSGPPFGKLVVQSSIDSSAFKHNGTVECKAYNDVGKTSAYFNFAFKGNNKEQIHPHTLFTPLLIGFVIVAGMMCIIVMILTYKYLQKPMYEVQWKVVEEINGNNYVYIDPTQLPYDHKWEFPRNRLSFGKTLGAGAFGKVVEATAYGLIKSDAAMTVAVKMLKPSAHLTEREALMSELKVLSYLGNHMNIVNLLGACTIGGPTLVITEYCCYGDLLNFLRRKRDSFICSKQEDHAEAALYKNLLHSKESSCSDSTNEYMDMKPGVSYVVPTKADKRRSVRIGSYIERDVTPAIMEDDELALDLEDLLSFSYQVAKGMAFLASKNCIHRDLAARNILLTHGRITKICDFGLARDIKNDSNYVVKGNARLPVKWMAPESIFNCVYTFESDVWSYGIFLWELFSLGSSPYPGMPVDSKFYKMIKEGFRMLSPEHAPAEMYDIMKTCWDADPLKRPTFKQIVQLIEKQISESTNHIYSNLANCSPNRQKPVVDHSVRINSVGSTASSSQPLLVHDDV
Method in brief: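 MO7e cells, arrested for 20 hr, were pretreated with test compound in DMSO for 1 hr and then stimulated with 50 ng/ml h-SCF for 5 min before lysis. Lysates were captured on immobilized anti-phosphotyrosine PY-20, probed with anti-c-kit antibody and HRP anti-rabbit IgG, and read colorimetrically at 450 nm.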

[3] = figure within parentheses in −( ) or >1000( )

Row | Structure (SMILES) | pIC50 [1] | pIC50 ([1]; Pharmacological Test Example 1) | pIC50 ([2]; h-SCF 50 ng/ml) | other results
1 | CCOC(=O)N1CCC(NC(=O)Nc2ccc(Oc3ccnc4cc(OC)c(OC)cc34)cc2)CC1 [Example 561, Ethyl 4-[({4-[(6,7-dimethoxy-4-quinolyl)oxy]anilino}carbonyl)amino]-1-piperidine-carboxylate] | > 8.00 | – | – | pIC50 ([2]; 50 ng/ml h-SCF): 7.27
2 | COc1cc2ncnc(Oc3ccc(NC(=S)NC(=O)Cc4ccc5ccccc5c4)cc3)c2cc1OC [Example 711, N-{4-[(6,7-Dimethoxy-4-quinazolinyl)oxy]phenyl}-N′-[2-(2-naphthyl)acetyl]thiourea] | < 7.00 | – | – | inhibition at 0.1 µM [1]: 34%; inhibition at 1 µM [2, 3]: 17%
3 | CCCc1ccc(C(=O)NC(=S)Nc2ccc(Oc3ccnc4cc(OC)c(OC)cc34)c(Cl)c2)cc1 [Example 1001, N-{3-Chloro-4-[(6,7-dimethoxy-4-quinolyl)oxy]phenyl}-N′-(4-propylbenzoyl)thiourea] | > 8.00 | – | – | inhibition at 1 µM ([2]; figure in parentheses in −( )): 34%
4 | COc1ccc(OCCCOC(=O)Nc2ccc(Oc3ncnc4cc(OC)c(OC)cc34)cc2)cc1 [Example 45, 3-(4-Methoxyphenoxy)propyl N-{4-[(6,7-dimethoxy-4-quinazolinyl)oxy]phenyl}carbamate] | – | > 8.00 | 7.04 | –
5 | COc1ccccc1COC(=O)Nc1cc(C)c(Oc2ccnc3cc(OC)c(OC)cc23)cc1C [Example 239, 2-Methoxybenzyl N-{4-[(6,7-dimethoxy-4-quinolyl)oxy]-2,5-dimethylphenyl}carbamate] | – | 8.05 | 6.74 | –
6 | COc1cccc(OCCCOC(=O)Nc2ccc(Oc3ncnc4cc(OC)c(OC)cc34)cc2Cl)c1 [Example 51, 3-(3-Methoxyphenoxy)propyl N-{2-chloro-4-[(6,7-dimethoxy-4-quinazolinyl)oxy]phenyl}carbamate] | – | 7.85 | 6.57 | –
7 | COc1cc2ncnc(Oc3ccc(N(C)C(=O)OCc4ccccc4Cl)c(Cl)c3)c2cc1OC [Example 480, 2-Chlorobenzyl N-{2-chloro-4-[(6,7-dimethoxy-4-quinazolinyl)oxy]phenyl}-N-methylcarbamate] | 8.00 | – | – | inhibition at 1 µM [2, 3]: 22%
8 | COc1cc2ncnc(Oc3ccc(NC(=O)OC(C)c4cccc(F)c4)c(Cl)c3)c2cc1OC (stereo not drawn) [Example 101, 1-(3-Fluorophenyl)ethyl N-{2-chloro-4-[(6,7-dimethoxy-4-quinazolinyl)oxy]phenyl}carbamate] | – | 7.92 | – | inhibition at 1 µM ([2]; figure in parentheses in −( )): 27%
9 | COc1cc2nccc(Oc3ccc(NC(=O)OC(C)c4ccccc4Cl)cc3)c2cc1OC (stereo not drawn) [Example 13, 1-(2-Chlorophenyl)ethyl N-{4-[(6,7-dimethoxy-4-quinolyl)oxy]phenyl}carbamate] | – | > 8.00 | 6.87 | –
10 | COc1cc2nccc(Oc3ccc(NC(=S)NC(=O)N4CCc5ccccc5C4)cc3)c2cc1OC [Example 1130, N-{4-[(6,7-Dimethoxy-4-quinolyl)oxy]phenyl}-N′-(1,2,3,4-tetrahydro-2-isoquinolylcarbonyl)thiourea] | > 8.00 | – | – | pIC50 ([2]; h-SCF stimulation): 6.26
11 | CCOc1ccccc1C(C)OC(=O)Nc1ccc(Oc2ncnc3cc(OC)c(OC)cc23)cc1 (stereo not drawn) [Example 130, 1-(2-Ethoxyphenyl)ethyl N-{4-[(6,7-dimethoxy-4-quinazolinyl)oxy]phenyl}carbamate] | – | > 8.00 | 6.15 | –
12 | COc1ccc(C(C)OC(=O)Nc2ccc(Oc3ncnc4cc(OC)c(OC)cc34)cc2)cc1 (stereo not drawn) [Example 35, 1-(4-Methoxyphenyl)ethyl N-{4-[(6,7-dimethoxy-4-quinazolinyl)oxy]phenyl}carbamate] | – | > 8.00 | 6.47 | –
13 | C#CCC(CC)OC(=O)Nc1ccc(Oc2ccnc3cc(OC)c(OC)cc23)c(C)c1C (stereo not drawn) [Example 410, 1-Ethyl-3-butynyl N-{4-[(6,7-dimethoxy-4-quinolyl)oxy]-2,3-dimethylphenyl}carbamate] | 7.92 | – | – | pIC50 ([2]; 50 ng/ml h-SCF): 7.10
14 | COc1cc2nccc(Oc3ccc(NC(=O)OCCc4ccccc4)c(C)c3C)c2cc1OC [Example 299, Phenethyl N-{4-[(6,7-dimethoxy-4-quinolyl)oxy]-2,3-dimethylphenyl}carbamate] | – | > 8.00 | 7.28 | –
15 | COc1cc2ncnc(Oc3ccc(NC(=O)OCCCOc4ccccc4Cl)c(Cl)c3)c2cc1OC [Example 20, 3-(2-Chlorophenoxy)propyl N-{2-chloro-4-[(6,7-dimethoxy-4-quinazolinyl)oxy]phenyl}carbamate] | – | > 8.00 | 6.96 | –
16 | COc1cc2ncnc(Oc3ccc(NC(=O)OCc4ccc(C(C)(C)C)cc4)c(Cl)c3)c2cc1OC [Example 61, 4-(Tert-butyl)benzyl N-{2-chloro-4-[(6,7-dimethoxy-4-quinazolinyl)oxy]phenyl}carbamate] | – | 8.00 | – | inhibition at 1 µM ([2]; figure in parentheses in −( )): 32%
17 | COc1cc2nccc(Oc3ccc(NC(=S)NC(=O)CCSC)c(C)c3)c2cc1OC [Example 696, N-{4-[(6,7-Dimethoxy-4-quinolyl)oxy]-2-methylphenyl}-N′-[3-(methylthio)propanoyl]-thiourea] | < 7.00 | – | – | inhibition at 0.1 µM [1]: 37%; inhibition at 1 µM [2, 3]: 35%
18 | COc1cc2ncnc(Oc3ccc(NC(=S)NC(=O)c4ccc(C)nc4)cc3)c2cc1OC [Example 1154, N-{4-[(6,7-Dimethoxy-4-quinazolinyl)oxy]phenyl}-N′-[(6-methyl-3-pyridyl)carbonyl]thiourea] | 7.31 | – | – | inhibition at 1 µM ([2]; figure in parentheses in −( )): 21%
19 | COc1cc2nccc(Oc3ccc(NC(=O)OCCCSc4ccc(Cl)cc4C)cc3)c2cc1OC [Example 77, 3-[(4-Chloro-2-methylphenyl)sulfanyl]propyl N-{4-[(6,7-dimethoxy-4-quinolyl)oxy]phenyl}carbamate] | – | > 8.00 | 7.00 | –
20 | COc1cccc(C(C)OC(=O)Nc2ccc(Oc3ccnc4cc(OC)c(OC)cc34)c(C)c2C)c1 (stereo not drawn) [Example 53, 1-(3-Methoxyphenyl)ethyl N-{4-[(6,7-dimethoxy-4-quinolyl)oxy]-2,3-dimethylphenyl}carbamate] | – | > 8.00 | 6.32 | –
21 | COc1cc2nccc(Oc3ccc(NC(=O)Oc4cccc(C#N)c4)c(C)c3C)c2cc1OC [Example 459, 3-Cyanophenyl N-{4-[(6,7-dimethoxy-4-quinolyl)oxy]-2,3-dimethylphenyl}carbamate] | 7.33 | – | – | pIC50 ([2]; 50 ng/ml h-SCF): > 7.52
22 | COc1cc2nccc(Oc3ccc(NC(=O)OCCN4CCCCC4)cc3)c2cc1OC [Example 303, 2-Piperidinoethyl N-{4-[(6,7-dimethoxy-4-quinolyl)oxy]phenyl}carbamate] | – | 7.96 | 6.73 | –

Continued, in another order:

Row | pIC50 [1] | pIC50 ([1]; Pharmacological Test Example 1) | pIC50 ([2]; h-SCF 50 ng/ml) | Structure (SMILES) | other results
23 | – | 7.49 | 6.28 | COc1cc2ncnc(Oc3ccc(NC(=O)OCC4CCCCC4)c(Cl)c3)c2cc1OC [Example 341, Cyclohexylmethyl N-{2-chloro-4-[(6,7-dimethoxy-4-quinazolinyl)oxy]phenyl}carbamate] | –
24 | 7.62 | – | – | COc1cc2nccc(Oc3ccc(NC(=S)NC(=O)c4ccc(C)cc4C)cc3)c2cc1OC [Example 1003, N-{4-[(6,7-Dimethoxy-4-quinolyl)oxy]phenyl}-N′-(2,4-dimethylbenzoyl)thiourea] | pIC50 ([2]; h-SCF stimulation): 6.20
25 | – | > 8.00 | 7.55 | COc1cc2nccc(Oc3ccc(NC(=O)OCC4CC4)c(C)c3C)c2cc1OC [Example 382, Cyclopropylmethyl N-{4-[(6,7-dimethoxy-4-quinolyl)oxy]-2,3-dimethylphenyl}carbamate] | –
26 | > 8.00 | – | – | C=C(C)COC(=O)Nc1ccc(Oc2ccnc3cc(OC)c(OC)cc23)c(C)c1C [Example 406, 2-Methylallyl N-{4-[(6,7-dimethoxy-4-quinolyl)oxy]-2,3-dimethylphenyl}carbamate] | pIC50 ([2]; 50 ng/ml h-SCF): > 7.52
27 | > 8.00 | – | – | CCCC(C)C(=O)NC(=S)Nc1ccc(Oc2ncnc3cc(OC)c(OC)cc23)cc1 (stereo not drawn) [Example 1201, N-{4-[(6,7-Dimethoxy-4-quinazolinyl)oxy]phenyl}-N′-(2-methylpentanoyl)thiourea] | pIC50 ([2]; h-SCF stimulation): 6.35
28 | – | > 8.00 | 7.19 | COc1cc2ncnc(Oc3ccc(NC(=O)OCC4CCCCCC4)cc3)c2cc1OC [Example 351, Cycloheptylmethyl N-{4-[(6,7-dimethoxy-4-quinazolinyl)oxy]phenyl}carbamate] | –
29 | – | > 8.00 | 6.54 | COc1cccc(C(C)OC(=O)Nc2ccc(Oc3ncnc4cc(OC)c(OC)cc34)cc2)c1 (stereo not drawn) [Example 55, 1-(3-Methoxyphenyl)ethyl N-{4-[(6,7-dimethoxy-4-quinazolinyl)oxy]phenyl}carbamate] | –
30 | 7.35 | – | – | C#CCC(CC)OC(=O)N(C)c1ccc(Oc2ccnc3cc(OC)c(OC)cc23)cc1 (stereo not drawn) [Example 496, 1-Ethyl-3-butynyl N-{4-[(6,7-dimethoxy-4-quinolyl)oxy]phenyl}-N-methylcarbamate] | inhibition at 1 µM [2, 3]: 32%
31 | – | 7.42 | 6.71 | COc1cc2ncnc(Oc3ccc(NC(=O)OCCc4ccccc4)c(Cl)c3)c2cc1OC [Example 339, Phenethyl N-{2-chloro-4-[(6,7-dimethoxy-4-quinazolinyl)oxy]phenyl}carbamate] | –
32 | 7.85 | – | – | COc1cc2nccc(Oc3ccc(NC(=S)NC(=O)C4CCCCC4)cc3Cl)c2cc1OC [Example 1179, N-{3-Chloro-4-[(6,7-dimethoxy-4-quinolyl)oxy]phenyl}-N′-cyclohexylcarbonylthiourea] | pIC50 ([2]; h-SCF stimulation): 6.49
